Data taken from article PMC10535842, “Novel Thiazole-Based SIRT2 Inhibitors Discovered via Molecular Modelling Studies and Enzymatic Assays” (Pharmaceuticals, 2023).
“Also recorded” adds a separate entry of the source.

Assays:
recombinant human HSP70 = target: T1, recombinant human HSP70 (Homo sapiens, UniProt P0DMV8); assay: HSP70 ATPase catalytic activity, Malachite green assay; type: biochemical; settings: 300 μM final concentration; read-out: percentage of inhibition of HSP70 ATPase activity
T1 construct: made in house; host or cells: E. coli BL21 (DE3)
Experimental: The impact of selected molecules on the ATPase catalytic activity of an in-house produced recombinant human HSP70 protein was determined using the Malachite green assay, incubating the recombinant protein with ATP in the presence or absence of different compounds (300 μM final concentration). The percentage of inhibition exerted by the selected compounds on the ATPase activity was as follow: 1a, 49 ± 2%; 2a, 40 ± 1%; 3a, 44 ± 4%; 4a, 20 ± 1%; 5a, 19 ± 1%; 6a, 37 ± 1%; 7a, 47 ± 1%.
The recombinant human Hsp70 protein was produced in BL21 (DE3) E. coli transformed with the pET-6xHis/hHSP70 plasmid containing the coding sequence for human HSP70 (hHSPA1A gene, NM_005345.6; purchased from Vector Builder, Vector ID VB210930). This vector allowed for producing an N-terminal 6xHis tag fusion HSP70 protein.
BL21 cells containing the vector were initially grown in Luria−Bertani medium at 37 °C (Merck, Milan, Italy) with 200 μg/mL ampicillin until the culture reached an OD600 of 0.5. The 6xHis/hHSP70 fusion protein was expressed by adding isopropyl-β-d-thiogalactopyranoside (final concentration of 0.2 mM) and incubating the bacteria culture at 37 °C for 2 h. The cells were harvested by centrifugation and then lysed by sonication in 20 mM Tris-HCl, 250 mM KCl, and 10 mM MgCl2 pH 7.4; after the addition of Triton X-100 to a final concentration of 1% and incubation for 30 min at 4 °C, the lysates were centrifugated at 10,000× g for 15 min. The HSP70 protein was purified by affinity chromatography using His GraviTrap TALON columns (Euroclone, Milan, Italy). Briefly, after loading the lysate, the resin was washed twice with 20 mM Tris-HCl, 250 mM KCl, and 10 mM MgCl2 pH 7.4 and twice with the same buffer containing 10 mM of imidazole. The elution of the recombinant protein was obtained with 150 mM imidazole, pH 7.4. Imidazole was removed from the recombinant protein through overnight dialysis using a dialysis tubing membrane (Merck KGaA, Frankfurter Strasse 250 Darmstadt, Germany) and the protein was concentrated using a Centricon (Merck Millipore, 11 Avenida Norte Bis No. 513, San Salvador, El Salvador). The protein concentrations were determined using the Bradford assay (Bio-Rad Laboratories, Inc. Italy, Segrate) and the protein purity was monitored using SDS-PAGE.
The ATPase catalytic activity of recombinant human HSP70 was measured with a colorimetric assay using the malachite green reagent. Briefly, 6 µM of HSP70 protein was incubated for 30 min at 37 °C with 5 mM ATP in 20 mM Tris-HCl, 250 mM KCl, 10 mM MgCl2, and 0.02%TritonX-100, pH 7.4. The released phosphates were quantified by adding the malachite green reagent to an aliquot of this incubation and the absorbance was recorded at 620 nm using a Clariostar plate reader. The effects of thiazoles-based molecules on the ATPase catalytic activity were measured by adding (or not) the different molecules to the incubation (at 300 µM final concentration). To correct for non-enzymatic hydrolysis of ATP and for a specific absorbance of molecules, the absorbance signal of identically treated samples lacking the HSP70 protein was subtracted.

SIRT6 = SIRT6 (Homo sapiens, UniProt Q8N6T7); assay: SIRT6 deacetylase and depalmitoylase activity (H3K9Ac / H3K9Palm peptides); type: biochemical
Experimental: The synthesis of peptides H3K9Ac and H3K9Palm and the evaluation of the SIRT2 deacetylase activity and of the SIRT6 deacetylase and depalmitoylase activity were carried out as previously described. The IC50 of compound 1a was determined as in [43].

[1] = tested on: SIRT2 activity (acetylation status of α-tubulin); assay: α-tubulin acetylation in cultured CFBE41o- cells (immunoblotting); type: cell-based, human; settings: 10 μM
Experimental: Finally, experiments were performed to determine whether compound 1a was active in intact cells. The acetylation status of α-tubulin, a known target of SIRT2 deacetylase activity, was used to monitor SIRT2 activity in human cells.
The cells were incubated with 10 μM of compound 1a or the respective amount of vehicle DMSO, and were used for protein lysate generation; then, the total and acetylated α-tubulin levels were detected by Immunoblotting. The levels of acetylated α-tubulin were quantified, normalized to the total α-tubulin, and expressed as percentage increase vs. vehicle-treated cells. One representative Western blot analysis and the mean ± SD of 3 quantifications are shown. **, p < 0.01.
The bronchial epithelial CFBE41o- cells were cultured as in [20]. […] The proteins were subsequently transferred to nitrocellulose membranes and the expression of the total or acetylated α-tubulin was detected using the following primary antibodies: anti-α-tubulin (rabbit polyclonal, #2125, Cell Signalling Technology, Danvers, MA, USA) and anti-acetylated α-tubulin (rabbit polyclonal, #5335, Cell Signalling Technology). Following incubation with the appropriate secondary antibodies and Amersham ECL detection (Cytiva, Milano, Italy), the band intensity was quantified using the ChemiDoc imaging system (Bio-Rad, Milan, Italy). α-tubulin acetylation was normalized to the total α-tubulin levels.

recombinant SIRT2 = target: T2, recombinant SIRT2 (Homo sapiens, UniProt Q8IXJ6); assay: SIRT2 deacetylase activity, recombinant SIRT2 incubated with acetylated peptide H3K9Ac and NAD+; type: biochemical; settings: recombinant protein
T2 sequence (Q8IXJ6 1-389): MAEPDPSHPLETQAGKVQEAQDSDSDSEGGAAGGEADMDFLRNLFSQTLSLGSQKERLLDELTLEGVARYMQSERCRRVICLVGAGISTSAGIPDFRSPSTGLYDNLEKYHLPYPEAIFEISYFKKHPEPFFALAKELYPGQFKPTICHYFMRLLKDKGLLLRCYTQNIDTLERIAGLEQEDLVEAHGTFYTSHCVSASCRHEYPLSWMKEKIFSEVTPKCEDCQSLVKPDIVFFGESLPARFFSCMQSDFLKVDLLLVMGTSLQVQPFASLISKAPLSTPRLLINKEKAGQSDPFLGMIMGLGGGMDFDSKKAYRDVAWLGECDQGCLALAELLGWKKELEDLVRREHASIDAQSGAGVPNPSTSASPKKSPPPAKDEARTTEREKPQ
Experimental: The effect of the in silico screened compounds on the SIRT2 deacetylase activity was evaluated thanks to the incubation of recombinant SIRT2 with an acetylated peptide (H3K9Ac, a peptide acetylated on Lys 9) and NAD^+.

SIRT2 = settings: HPLC assay, H3K9Ac; read-out: SIRT2 IC50 (series C, compounds 112-116); cited from earlier work

Chain of SIRT6 (Q8N6T7 whole entry): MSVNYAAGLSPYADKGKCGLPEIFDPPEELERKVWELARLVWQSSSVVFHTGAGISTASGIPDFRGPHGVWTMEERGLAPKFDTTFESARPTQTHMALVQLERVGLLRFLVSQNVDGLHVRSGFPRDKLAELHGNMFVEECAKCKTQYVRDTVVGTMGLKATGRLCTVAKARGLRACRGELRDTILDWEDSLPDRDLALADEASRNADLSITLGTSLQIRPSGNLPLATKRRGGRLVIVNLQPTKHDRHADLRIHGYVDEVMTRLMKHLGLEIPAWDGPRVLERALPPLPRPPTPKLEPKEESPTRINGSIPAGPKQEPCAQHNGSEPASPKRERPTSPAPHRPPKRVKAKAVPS
T1 sequence (P0DMV8 whole entry): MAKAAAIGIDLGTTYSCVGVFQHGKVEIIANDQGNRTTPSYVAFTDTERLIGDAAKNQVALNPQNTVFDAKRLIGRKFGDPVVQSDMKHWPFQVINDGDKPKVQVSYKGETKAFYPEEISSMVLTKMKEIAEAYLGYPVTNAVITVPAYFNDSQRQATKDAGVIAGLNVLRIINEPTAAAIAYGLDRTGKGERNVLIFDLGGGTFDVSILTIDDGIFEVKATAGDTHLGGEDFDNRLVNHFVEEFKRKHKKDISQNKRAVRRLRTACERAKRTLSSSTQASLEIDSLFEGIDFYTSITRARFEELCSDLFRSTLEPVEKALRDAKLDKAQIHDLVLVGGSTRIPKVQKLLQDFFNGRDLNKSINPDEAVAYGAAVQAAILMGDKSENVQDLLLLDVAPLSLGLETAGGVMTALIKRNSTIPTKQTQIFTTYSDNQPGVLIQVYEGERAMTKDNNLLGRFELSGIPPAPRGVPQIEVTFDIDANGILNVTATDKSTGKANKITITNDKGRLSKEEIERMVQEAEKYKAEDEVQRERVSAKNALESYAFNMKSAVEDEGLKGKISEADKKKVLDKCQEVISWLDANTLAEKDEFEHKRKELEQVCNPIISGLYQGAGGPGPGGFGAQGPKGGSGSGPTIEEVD

CSc1cccc(Nc2nc(-c3nc4ccccc4s3)cs2)c1 [Compound 1a]
inhibition at 300 µM (recombinant human HSP70): 49 ± 2% | effect on SIRT6 deacetylase activity (SIRT6): did not significantly affect | selectivity over SIRT6 (SIRT6): selective over SIRT6 | effect on SIRT6 depalmitoylase activity (SIRT6; palmitoylated peptide H3K9Palm): did not significantly affect | α-tubulin acetylation (acetylated normalized to total α-tubulin, vs vehicle) [1]: higher levels of the acetylated SIRT2 substrate; also recorded: increased α-tubulin acetylation | inhibition at 150 µM (recombinant SIRT2; 150 μM): 72 ± 8% | IC50 (recombinant SIRT2): 45.1 ± 5 µM

O=C(On1nnc2ccccc21)c1ccc[nH]1 [Compound 113]
IC50 (SIRT2): 42.7 µM

Cc1ccc2[nH]cc(C(=O)On3nnc4ccccc43)c2c1 [Compound 115]
IC50 (SIRT2): 74 µM

O=C(On1nnc2ncccc21)c1c[nH]c2ccc(Br)cc12 [Compound 116]
IC50 (SIRT2): 77.1 µM
